Data as given in patent publication US7781187B2, “Fluorescent dyes” (Corning Incorporated, priority 2005, dated 2010).
Read-outs that look alike come from different tables or passages of the source.

Assays:
[1] = Fluorescence excitation and emission spectra of the dyes in buffer (Fluorolog-3 spectrometer); assay type: physicochemical; design: key to Excitation max. / Emission max.: peak wavelengths in nm
From the text: The fluorescence of the exemplary fluorescent dyes in buffer was examined on a Fluorolog®-3 (a trademark of Spex Industries Inc.) spectrometer. The fluorescent dyes of the present invention have large Stokes shifts; the excitation and emission maxima are close to or greater than 100 nm apart. Peak wavelengths are tabulated in Table 2 along with two commercially available fluorescent dyes, TOTO-1TM and YO-[…]TM (trademarks of Molecular Probes, Inc.). The Stokes shifts of TOTO-1TM and YO-[…]TM are small in comparison to the dyes of the present invention.

dsDNA (20 mer) = assay: Emission intensity of dye with equimolar dsDNA relative to free dye (fluorescence spectrometer); settings: for direction of change in emission intensity upon addition of DNA / effect of ssDNA and dsDNA on dye emission: FIG. 2; for Free dye rel. to dsDNA: equimolar dsDNA (20 mer), emission intensity ratio
From the text: (§1) FIG. 2 illustrates the effect of ssDNA and dsDNA on dye emission. […] All the dyes reported here show a larger change in emission intensity upon the addition of dsDNA than they do upon the addition of ssDNA; in some cases (GA, 95) this change is positive, in others it is negative (HE, HE-HE, FI).
Emission intensities of the fluorescent dyes of the present invention and TOTO-1™ at 1×10^−5 M in 1×PCR buffer were compared in the absence of DNA (free dye emission) and in the presence of equimolar dsDNA or ssDNA (20 mer) on the fluorescence spectrometer. […]

dsDNA [2] = assay: Titration of dyes with dsDNA in 96-well microplate (sensitivity and dynamic range, SpectraMax Gemini plate reader)
Description: The fluorescent dyes shown in Table 5 were titrated with dsDNA in order to determine the sensitivity (lowest detection limit) and dynamic range. A 96-well polystyrene Corning Costar® (a trademark of Corning Incorporated) microwell plate was loaded with 100 μL/well of dye mixed with various levels of dsDNA and incubated at room temperature for 2 hours allowing the mixture to equillibrate. The dye fluorescence was then measured on a SpectraMax® (a trademark of Molecular Devices Corp.) Gemini Plate-reader. Relative fluorescence units (RFU) were then plotted against DNA concentration in pg/μL.

dsDNA [3] = assay: ssDNA/dsDNA selectivity in the plate reader assay (FIG. 3)
From the text: FIG. 3 illustrates the ssDNA/dsDNA selectivity of the fluorescent dyes of the present invention, HE-HE and 95, versus the commercially available fluorescent dye TOTO-1™ in the plate reader assay. […] By learning more about the binding modes of the disclosed dyes, it should be possible to design and synthesize members of the family optimized for dsDNA detection.

ssDNA (20 mer) = assay: Emission intensity of dye with equimolar ssDNA relative to free dye (fluorescence spectrometer); settings: dye 1×10^−5 M in 1×PCR buffer; for change of the emission intensity in the presence of ssDNA: equimolar ssDNA; for Free dye rel. to ssDNA: equimolar ssDNA (20 mer), emission intensity ratio
From the text: as §1
Emission intensities of the fluorescent dyes of the present invention and TOTO-1™ at 1×10^−5 M in 1×PCR buffer were compared in the absence of DNA (free dye emission) and in the presence of equimolar dsDNA or ssDNA (20 mer) on the fluorescence spectrometer.
The fluorescent dyes of the present invention have a large Stokes shift allowing the use of less sophisticated equipment for the detection of the emission intensity.

[4] = Stokes shift of MH dyes (FIG. 4); assay type: physicochemical
From the text: Unlike Fluorescein and other commercially available dyes whose peak excitation and emission wavelengths are extremely close the MH dyes have ˜200 nm between peaks.

[5] = test system: double-stranded DNA (dsDNA); settings: on a microplate reader; cited from earlier work
[6] = commercial dye data from Molecular Probes catalog; cited from earlier work
[7] = dye 1×10^−5 M in 1×PCR buffer, equimolar dsDNA

Emission max. [1]	Excitation max. [1]	Stokes shift [1]	SMILES	direction of change in emission intensity upon addition of DNA (dsDNA (20 mer))	ssDNA/dsDNA selectivity (dsDNA [3])	Free dye rel. to dsDNA (dsDNA (20 mer); dye 1×10^−5 M in 1×PCR buffer)	Free dye rel. to ssDNA (ssDNA (20 mer))	further results
585	500	85 nm	C[n+]1c(/C=C/c2ccc(N(CCO)CCO)cc2)sc2ccccc21 [Dye 95]	positive	significant preference for dsDNA	–	–	dynamic range compared with TOTO-1™ (dsDNA [2]): larger dynamic range; sensitivity compared with TOTO-1™ (dsDNA [2]): comparable
546	382	164 nm	C[n+]1c(/C=C/c2ccc(SCCO)cc2)sc2ccccc21 [FI]	negative	–	28.7	0.98	effect of ssDNA and dsDNA on dye emission (dsDNA (20 mer)): most pronounced; change of the emission intensity in the presence of dsDNA (dsDNA (20 mer); [7]): 28.7 times; change of the emission intensity in the presence of ssDNA (ssDNA (20 mer)): very little change
587	512	75 nm	CN(CCO)c1ccc(/C=C/c2sc3ccccc3[n+]2C)cc1 [GA]	positive	–	–	–	–
616	400	216 nm	C[n+]1c(/C=C/c2ccc(OCCOCCOCCOc3ccc(/C=C/c4sc5ccccc5[n+]4C)cc3)cc2)sc2ccccc21 [HE-HE]	negative	only slightly more sensitive towards dsDNA than ssDNA	13.5	1.19	effect of ssDNA and dsDNA on dye emission (dsDNA (20 mer)): most pronounced; change of the emission intensity in the presence of dsDNA (dsDNA (20 mer); [7]): 13.5 times; dynamic range compared with TOTO-1™ (dsDNA [2]): greater dynamic range; sensitivity compared with TOTO-1™ (dsDNA [2]): more sensitive
500	385	115 nm	COc1ccc(/C=C/c2sc3ccccc3[n+]2C)cc1 [HE]	negative	–	–	–	–
–	–	–	CN(C)c1ccc(/C=C/c2ccc(C(=O)[O-])s2)cc1.[Li+] [MH1]	–	–	–	–	Stokes shift (between peak excitation and emission wavelengths) [4]: ~200 nm
–	–	–	O=C([O-])c1ccc(-c2ccc(/C=C/c3ccc(N(CCO)CCO)cc3)s2)s1.[Na+] [MH3]	–	–	–	–	Stokes shift (between peak excitation and emission wavelengths) [4]: ~200 nm
–	–	–	CN(C)CCCN(CCCN(C)C)c1cc(C=C2Sc3ccccc3N2C)c2ccccc2[n+]1-c1ccccc1 [PicoGreen™]	–	–	–	–	dynamic range [5]: ~3 orders of magnitude; sensitivity for double-stranded DNA (dsDNA) [5]: 250 pg/mL
–	–	–	CN1/C(=C/c2cc[n+](CCC[N+](C)(C)CCC[N+](C)(C)CCC[n+]3ccc(/C=C4\Sc5ccccc5N4C)c4ccccc43)c3ccccc23)Sc2ccccc21.[I-].[I-].[I-].[I-] [TOTO-1™, reference compound]	–	superior selectivity	0.003	0.95	change of the emission intensity upon interaction with dsDNA (dsDNA (20 mer); [7]): ~3 orders of magnitude; change of the emission intensity in the presence of ssDNA (ssDNA (20 mer)): very little change; Emission max. [6]: 533; Excitation max. [6]: 514; Stokes shift [6]: 19 nm
–	–	–	CN1C(=CC=Cc2cc[n+](CCC[N+](C)(C)C)c3ccccc23)Oc2ccccc21.[I-].[I-] [YO-PRO-3 ™]	–	–	–	–	Emission max. [6]: 631; Excitation max. [6]: 612; Stokes shift [6]: 19 nm
